From patent publication US11571444B2, “Enhancement of MSC immunomodulatory properties by treprostinil” (United Therapeutics Corporation, priority 2016, dated 2023) come the findings set out here.

One data set concerns IL10 expression in MSC. The experiment in a line: RNA analysis of anti-inflammatory cytokine IL10 in exposed MSC. It is filed as cell-based, human. Particulars: 48 hours. How it is done:
(§1) A single vial of human bone marrow-derived MSC was expanded and seeded using standard growth medium. At 95-99% confluency, cells were thoroughly washed with phosphate-buffered saline (PBS) and exposed to media containing treprostinil at doses ranging from 250 μg/mL to 0.004 μg/mL. After 48 hours of culture, cells were photographed and assessed for treatment-induced changes in morphology.
(§2) Cells exposed to treprostinil ranging from 250 μg/mL-0.004 μg/mL as described in Example 1 were harvested. RNA of the cells was extracted and then analyzed for pro- and anti-inflammatory cytokines. Cytokines, or small proteins involved in both internal and secreted cell signaling, have been identified to play a role in the inflammatory pathogenesis of PAH (Groth et al., Respiratory Research, 15:47 (2014)).

The subject of another data set is IDO1 expression in MSC. The data set is described as follows: RNA analysis of immunosuppressive factor IDO1 in exposed MSC. It is filed as cell-based, human. Particulars: 48 hours. The procedure: as §1
(§3) RNA from MSCs exposed to treprostinil of from 250 μg/mL to 0.004 μg/mL was re-analyzed for several other anti-inflammatory factors.

Data set [1] concerns human bone marrow-derived MSC. The experiment in a line: MSC morphology after 48 hours exposure (cytotoxic effect). Particulars: 48 hours of culture. In kind it is cell-based. How it is done: as §1
A further data set concerns TGFβ expression in MSC. The data set is described as follows: RNA analysis of immunosuppressive factor TGFβ in exposed MSC. In kind it is cell-based, human. Particulars: 48 hours. How it is done: as §1, §3
For the next data set, the system named is HLA expression in MSC. The experiment in a line: RNA analysis of immunosuppressive factor HLA in exposed MSC. It is filed as cell-based, human. Particulars: 48 hours. The procedure: as §1, §3
In another data set the test system is TNFα expression in MSC. The experiment in a line: RNA analysis of pro-inflammatory cytokine TNFα in exposed MSC. In kind it is cell-based, human. Particulars: 48 hours. How it is done: as §1, §2
Another data set relates to IL13 expression in MSC. The data set is described as follows: RNA analysis of anti-inflammatory cytokine IL13 in exposed MSC. In kind it is cell-based, human. Particulars: 48 hours. The procedure: as §1, §2
In another data set the test system is iNOS expression in MSC. The experiment in a line: RNA analysis of immunosuppressive factor iNOS in exposed MSC. In kind it is cell-based, human. Particulars: 48 hours. The procedure: as §1, §3

For the molecule `CCCCC[C@H](O)CC[C@@H]1[C@H]2Cc3cccc(OCC(=O)O)c3C[C@H]2C[C@H]1O` [treprostinil], in the data set on IL10 expression in MSC (9.3 μg/mL), the “increase of IL10 expression in MSC” value worked out at 5.4 fold. Besides, the “IL10 signaling over control” value with IL10 expression in MSC (increasing doses) is “increase”. Also, the “IDO over unexposed control” value in the data set on IDO1 expression in MSC (9.3 μg/mL) was “increased”. The IDO1 over control result in the data set with IDO1 expression in MSC (increasing doses) was “robust increase”. Moreover, the “MSC morphology (cytotoxic effect)” value was “did not cause morphological changes associated with cell death” in data set [1] (83.3 μg/mL or lower); “rounded up and detached” in data set [1] (250 μg/mL). Moreover, the “TGFβ over unexposed control” value with TGFβ expression in MSC (9.3 μg/mL) is recorded as “increased”. For the same molecule, in the data set with TGFβ expression in MSC (increasing doses), the TGFβ over control result is given as “robust increase”. The “HLA over unexposed control” value in the data set with HLA expression in MSC (9.3 μg/mL) is listed as “increased”. For the same molecule, in the data set with HLA expression in MSC (increasing doses), the HLA over control entry was “robust increase”. Also, in the data set with TNFα expression in MSC (0.3 μg/mL to 83.3 μg/mL), the “lowering of TNFα expression compared to control” value is recorded as “up to 4.7 fold”. Also, the “TNFα over unexposed control” value with TNFα expression in MSC (9.3 μg/mL) is listed as “decreased”. Also, the “IL13 over unexposed control” value in the data set with IL13 expression in MSC (9.3 μg/mL) is “increased”. For the same molecule, the “increase of IL13 expression in MSC” value in the data set on IL13 expression in MSC (27.8 μg/mL) was 8.8 fold. For the same molecule, the “IL13 signaling over control” value in the data set with IL13 expression in MSC (increasing doses) is “increase”. Further, in the data set with iNOS expression in MSC (9.3 μg/mL), the “iNOS over unexposed control” value is “increased”. In the data set on iNOS expression in MSC (increasing doses), the iNOS over control entry is on record as “robust increase”.
